Laboratory results taken from patent US20260250278A1, “PHENYL-SUBSTITUTED DIHYDRONAPHTHYRIDINE COMPOUNDS, AND PREPARATION AND USE THEREOF” (SUZHONG PHARMACEUTICAL GROUP CO., LTD., priority 2022, published 2026).

How the values were obtained:
[1] = Pharmacokinetic test of mice (intravenous administration); type: in vivo; details: mouse, plasma; CD1 mice, intravenous 1 mg/kg
Protocol: This experiment was intended to evaluate a pharmacokinetic behavior of a compound after intravenous injection or intragastric administration in the mice. Intravenous injection administration: a test compound was prepared into 0.2 mg/mL clear solution, a solvent was 10% ethanol/40% polyethylene glycol 400/50% ultrapure water, and after administration, plasma was collected 0.083 hour, 0.25 hour, 0.5 hour, 1 hour, 2 hours, 4 hours, 8 hours, 24 hours and 48 hours later.
(§1) A concentration of the test compound in the plasma was determined by high-performance liquid chromatography-tandem mass spectrometry (LC-MS/MS). Retention time, chromatogram collection and chromatogram integration of compounds and internal standards were treated by software Analyst (Applied Biosystems), and data statistics was treated by software Analyst (Applied Biosystems).
(§2) A plasma concentration was treated by a non-atrioventricular model of Winnonlin™ Version 6.1 (Pharsight, Mountain View, CA) pharmacokinetic software, and pharmacokinetic parameters were calculated by a linear logarithmic trapezoid method.

CYP3A4 = CYP3A4 (Homo sapiens, UniProt P08684); experiment: biochemical; type: in vitro ADME
[2] = Pharmacokinetic test of rats (intravenous and intragastric administration); type: in vivo; details: SD rats; for AUC(0-t) / Cmax / clearance / half-life: rat, plasma
Protocol: This experiment was intended to evaluate a pharmacokinetic behavior of an implementing compound after intravenous injection or intragastric administration in the rats. Intravenous injection administration: a test compound was prepared into 0.2 mg/mL clear solution, a solvent was 10% ethanol, 40% polyethylene glycol 400 and 50% water, and after administration, plasma was collected 0.083 hour, 0.25 hour, 0.5 hour, 1 hour, 2 hours, 4 hours, 8 hours and 24 hours later. Intragastric administration: a test compound was prepared into 1 mg/mL clear solution, a solvent was 10% ethanol/40% polyethylene glycol 400/50% water, and after administration, plasma was collected 0.25 hour, 0.5 hour, 1 hour, 2 hours, 4 hours, 8 hours and 24 hours later.
as §1, §2
Pharmacokinetic parameters of the compounds in the rats with an intravenous injection dose of 1 mg/kg and an intragastric and oral dose of 5 mg/kg were as shown in Table 20 below.

[3] = mouse, in vivo
Excerpt: In particular, a maximum tolerated dose of the compound 36 after repeated administration for 14 days is more than 2.7 times that of the compound 62, especially a safety window of the dose is more than 230 times that of the equivalent dose, so that the compound has high safety.

[4] = target: T1, mineralocorticoid receptor (MR) (Homo sapiens, UniProt P08235); experiment: MR Gal4-LBD luciferase reporter gene assay in HEK293T cells (antagonism of 0.8 nM aldosterone); type: cell-based
T1 construct: expressed in transfected cells
T1 sequence (P08235 726-964 limits assumed): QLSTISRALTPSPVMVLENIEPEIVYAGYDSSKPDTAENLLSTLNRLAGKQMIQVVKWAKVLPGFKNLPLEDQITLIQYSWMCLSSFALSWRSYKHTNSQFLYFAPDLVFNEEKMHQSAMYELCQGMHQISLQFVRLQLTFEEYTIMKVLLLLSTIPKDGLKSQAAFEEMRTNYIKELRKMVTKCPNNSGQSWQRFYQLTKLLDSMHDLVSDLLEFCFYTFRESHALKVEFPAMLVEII
Excerpt: By the characteristic of chemiluminescence reaction produced by combination of luciferase and substrate, a Gal4 DNA binding domain (DBD) fused plasmid containing a mineralocorticoid receptor (MR) ligand binding domain (LBD) and a firefly luciferase reporter gene plasmid under the control of Gal4 UAS (upstream activation sequence) were transfected into human embryonic kidney cells (HEK293). Changes of […] were judged by a level of firefly luciferase activity.
All compounds were dissolved in DMSO to prepare a 25 mM stock solution, and stored in a refrigerator at −20° C.
• 1) A compound to be tested was subjected to 3-times gradient dilution with the DMSO, with 10 concentration gradients and an initial concentration of 10 mM. • 2) A positive compound (Finerenone) was subjected to 3-times gradient dilution with the DMSO, with 10 concentration gradients and an initial concentration of 1 mM. • 3) 1000× positive control (1 mM, Finerenone) and 1000× negative control (100% DMSO) were prepared. • 4) A compound plate was sealed and shaken for 5 minutes.
• 5) All cells were cultured by ATCC standard operation, and HEK293T was experimented in an exponential growth phase. • 6) A culture medium supernatant was gently discarded. The cells were washed with PBS twice.
(3) The cells were digested with pancreatin digestive juice, the digestion was stopped with a complete culture solution, and then the cells were collected and counted.
(4) 6×10^6 HEK293T cells were inoculated into a 100 mm cell culture dish.
(5) The culture dish inoculated with the cells was cultured in a 5% CO2 incubator at 37° C. for 16 hours overnight.
• 1) Lipofectamine® 3000&P3000 transfection reagents were placed at room temperature. • 2) The Lipofectamine® 3000 reagent was added into an Opti-MEM™ culture medium, and meanwhile, the P3000, the plasmid and the Opti-MEM™ culture medium were added into another tube, taking care not to touch the tube wall. • 3) The mixture was mixed evenly by a pipette, and allowed to stand at room temperature for 5 minutes. • 4) The plasmid was added into the diluted transfection reagent, mixed evenly by a pipette, and allowed to stand at room temperature for 20 minutes. • 5) The transfection reagent mixed with the plasmid was added into a […] cell culture dish. • 6) The culture dish was cultured in a 5% CO2 incubator at 37° C. for 5 hours to 6 hours.
• 1) 25 nL of diluted compound was transferred to a cell culture plate with Echo655. • 2) The cells (referring to step 1.3) were inoculated into a 384 cell culture plate, with 17,000 cells, 25 μL of phenol red-free DMEM culture medium containing 5% CFBS and 0.8 nM Aldosteron per well.
(3) The cell culture plate was cultured in a 5% CO2 incubator at 37° C. for 18 hours to 20 hours overnight.
• 1) A Britelite plus detection reagent was placed at room temperature. 2) The 384 cell plate was placed at room temperature. • 3) 25 μL of Britelite plus detection reagent was added into each well of the cell culture plate. • 4) A luminescence was detected with Envision.
• 1) a firefly luciferase signal was obtained by reading the Luminescence to calculate an inhibition rate; • 2) % inhibition rate=100−[(RLU compound−avgRLU positive control)/(RLU negative control−avgRLU positive control)×100%, wherein the avgRLU positive control was an average value of Luminescences of all positive control wells in the whole plate; the avgRLU negative control was an average value of Luminescences of all negative control wells in the whole plate; and the RLU compound was Luminescence values of compounds to be tested with different concentrations; and • 3) IC50 of the compound was calculated by Graphpad8.0 Drawing software.

[5] = CYP3A4-5M IC50, human CYP3A4, CYP3A4-5M
[6] = CYP3A4-5T IC50, human CYP3A4, CYP3A4-5T
[7] = intragastric and oral administration 5 mg/kg

Chain of CYP3A4 (P08684 2-503 limits assumed): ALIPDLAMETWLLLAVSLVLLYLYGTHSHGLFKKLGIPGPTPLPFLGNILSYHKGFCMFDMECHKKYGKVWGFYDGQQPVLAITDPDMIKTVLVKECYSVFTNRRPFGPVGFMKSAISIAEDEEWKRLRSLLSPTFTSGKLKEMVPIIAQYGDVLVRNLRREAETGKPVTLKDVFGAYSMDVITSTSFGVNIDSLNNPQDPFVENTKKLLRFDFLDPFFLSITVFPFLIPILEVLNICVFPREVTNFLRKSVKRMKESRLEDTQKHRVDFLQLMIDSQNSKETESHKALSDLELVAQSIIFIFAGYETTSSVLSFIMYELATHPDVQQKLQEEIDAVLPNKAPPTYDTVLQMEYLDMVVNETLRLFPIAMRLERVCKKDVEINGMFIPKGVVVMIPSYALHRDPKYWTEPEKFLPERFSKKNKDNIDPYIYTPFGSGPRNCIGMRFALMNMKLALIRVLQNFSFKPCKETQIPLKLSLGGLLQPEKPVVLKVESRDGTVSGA

| Structure (SMILES) | AUC(0-t) [1] | inhibitory effect on CYP3A4 (CYP3A4) | IC50 (CYP3A4; [5]) | IC50 (CYP3A4; [6]) | F [2, 7] | AUC(0-t) [2, 7] | Cmax [2, 7] | AUC(0-t) ([2]; intravenous 1 mg/kg) | clearance ([2]; intravenous 1 mg/kg) | half-life ([2]; intravenous 1 mg/kg) | maximum tolerated dose after repeated administration for 14 days, relative to compound 62 [3] | safety window of the dose relative to the equivalent dose ([3]; 14 days) | IC50 [4] | maximum tolerated dose after repeated administration for 14 days (safety in words) [3] |
| --- | --- | --- | --- | --- | --- | --- | --- | --- | --- | --- | --- | --- | --- | --- |
| CCOc1ncc(C)c2c1[C@H](c1ccc(C#N)c3c1OCC3)C(C(N)=O)=C(C)N2 [Example 36, (S)-4-(4-cyano-2,3-dihydrobenzofuran-7-yl)-5-ethoxy-2,8-dimethyl-1,4-dihydro-1,6-naphthyridine-3-formamide] | 206 µg·h/mL | small inhibitory effect | 22.9 µM | 15.8 µM | 73.74% | 365 µg·h/mL | 37000 ng/mL | 94.1 µg·h/mL | 0.14 mL/min/kg | 12.1 h | more than 2.7 times that of the compound 62 | more than 230 times that of the equivalent dose | 0.0115 µM |  |
| CCOc1ncc(C)c2c1[C@H](c1ccc(C#N)c3c1OCO3)C(C(N)=O)=C(C)N2 [Example 62, (S)-4-(7-cyanobenzo[d][1,3]dioxol-4-yl)-5-ethoxy-2,8-dimethyl-1,4-dihydro-1,6-naphthyridine-3-formamide] | 201 µg·h/mL |  | 13.7 µM | 5.35 µM | 78.09% | 361 µg·h/mL | 24000 ng/mL | 106 µg·h/mL | 0.13 mL/min/kg | 10.1 h |  |  | 0.0148 µM | highly safe |
